Data published in patent US20140128399A1, “METHODS AND COMPOSITIONS FOR TREATING URINARY TRACT INFECTIONS USING AGENTS THAT MIMIC OR ELEVATE CYCLIC AMP” (DUKE UNIVERSITY, priority 2007, published 2014).

Test system: E. coli-infected human bladder epithelial cells (BECs)
Experiment: Intracellular bacterial levels in BECs
Type: cell-based
Conditions: single agent, presented as % of control in figures
Procedure: Intracellular bacterial levels in BECs were measured in untreated BECs and in BECs treated with forskolin, various PDE inhibitors, and a combination of forskolin with a PDE inhibitor. Several PDE inhibitors were used, including both broadly active PDE inhibitors that block PDEs in a non-specific manner as well as specific PDE inhibitors that block only certain PDEs.

CCCCCCCCCCCCCC(=O)O[C@@H]1[C@@H](C)[C@@]2(O)[C@@H](C=C(CO)C[C@]3(O)C(=O)C(C)=C[C@@H]23)[C@@H]2C(C)(C)[C@]12OC(C)=O [PMA, phorbol myristate acetate]
bacterial loads / intracellular bacterial numbers in BECs: significantly reduced
